Measured values published in US6229055A, “Synthesis of fluorinated xanthene derivatives” (Molecular Probes, Inc., priority 2000, dated 2001).

Tests used:
[1] = Spectral properties of selected fluorinated fluoresceins and rhodols; type: physicochemical; conditions: for Abs.: absorption maximum; for Em.: emission maximum; for ε × 10^-3: extinction coefficient, value is ε × 10^-3; for Quantum Yield: fluorescence quantum yield
[2] = Photodecomposition on illumination in fluorometer; type: physicochemical; conditions: % of decreased fluorescence intensity after 33 minutes of illumination in fluorometer at wavelength of maximum excitation
Experimental: *% of decreased fluorescence intensity after 33 minutes of illumination in
fluorometer at wavelength of maximum excitation

[3] = pH titration of fluorophores (pKa)
Experimental: The dye of interest is first dissolved in a series of buffers that have each been calibrated using a pH meter. Acetate buffers are typically used in the range of pH 46, and phosphate buffers in the pH range 68. Absorption measurements are made using solutions that are approximately 10 1M in concentration, and fluorescence measurements are made using solutions that are approximately 1 μM in concentration. The absorption or emission data is then plotted versus pH to determine pKa values.

[4] = system: ATP-dependent dye efflux mechanisms in lymphoid-B cell lines; assay: Dye efflux from labeled cells with and without verapamil or probenecid, flow cytometry; type: cell-based
Experimental: Identical batches of lymphoid-B cell lines cells are separately incubated with […] solutions of 4,5,6,7-tetrafluorofluorescein diacetate (Compound 25), 2',7'-dichloro4,5,6,7-tetrafluorofluorescein diacetate (Compound 28), 2',4,5,6,7,7'-hexafluorofluorescein diacetate ([…]) and 2',4',5',7'-tetrafluorofluorescein diacetate. To one set of each cells is added 100 μM verapamil and to another 1 mM probenecid, both of which are known to block ATP-dependent dye efflux mechanisms, as found in multidrug resistant of cells. Without washing, the cells are analyzed for brightness by flow cytometry using 488-nm excitation.

[5] = system: rabbit polyclonal anti-fluorescein IgG (H+L) fraction; assay: Fluorescence quenching by anti-fluorescein antibody; type: binding; conditions: 5×10^-9 M dye
Experimental: Solutions of 5×10^-9 M fluorescein and 5×10^-9 M 2',7'-difluorofluorescein (Compound 29) are prepared in 100 mM potassium phosphate buffer, pH 8.0. The fluorescence of each solution is read with excitation at 490 nm. Sequential additions of 0.5 mg/mL rabbit polyclonal anti-fluorescein IgG (H+L) fraction (Molecular Probes, Inc.) are added and the fluorescence measurements are repeated.

[6] = approximate, from fluorescence emission versus pH (FIG. 3), in water
[7] = antibody volume 0 μL, pH 8.0, excitation 490 nm
[8] = antibody volume 2 μL of 0.5 mg/mL, pH 8.0
[9] = antibody volume 4 μL of 0.5 mg/mL, pH 8.0
[10] = antibody volume 6 μL of 0.5 mg/mL, pH 8.0
[11] = antibody volume 8 μL of 0.5 mg/mL, pH 8.0
[12] = antibody volume 10 μL of 0.5 mg/mL, pH 8.0
[13] = antibody volume 12 μL of 0.5 mg/mL, pH 8.0
[14] = antibody volume 15 μL of 0.5 mg/mL, pH 8.0
[15] = given in the synthesis examples

| Abs. [1] | Em. [1] | ε × 10^-3 [1] | Quantum Yield [1] | photodecomposition [2] | Compound | pKa ([3]; Table 1) | also measured |
| --- | --- | --- | --- | --- | --- | --- | --- |
| 510 nm | 533 nm | 81.3 cm^-1 M^-1 | 0.59 | 6.0% | 5-(and-6)-carboxy-2',4',5',7'-tetrafluorofluorescein [Compound 40] | 3.7 |  |
| 504 nm | 530 nm | 80.3 cm^-1 M^-1 | 0.75 |  | 5-(and-6)-carboxy-2',7'-dichlorofluorescein [reference compound] |  |  |
| 492 nm | 516 nm | 85.9 cm^-1 M^-1 | 0.92 | 9.0% | 5-(and-6)-carboxy-2',7'-difluorofluorescein | 4.8 |  |
| 495 nm | 518 nm |  |  | 4.0% | 5-(and-6)-carboxy-2'-fluororhodol [Compound 55] | 3.8 |  |
| 510 nm | 534 nm | 84.2 cm^-1 M^-1 | 0.43 | 11% | 5-(and-6)-carboxy-4',5'-difluorofluorescein [Compound 41] | 5.2 |  |
| 494 nm | 519 nm |  |  | 4.0% | 5-(and-6)-carboxy-7'-fluororhodol | 5.2 |  |
| 519 nm | 553 nm |  |  | 5.0% | 5-(and-6)-carboxy-N,N-dimethyl-2'-fluororhodol | 4.2 |  |
| 520 nm | 546 nm |  |  | 5.0% | 5-(and-6)-carboxy-N,N-dimethyl-7'-fluororhodol | 5.3 |  |
| 518 nm | 544 nm |  | 0.26 |  | 5-(and-6)-carboxy-N,N-dimethylrhodol [reference compound] |  |  |
| 494 nm | 521 nm | 69.6 cm^-1 M^-1 | 0.89 | 4.0% | 5-(and-6)-carboxyrhodol [reference compound] | 5.6 |  |
| 507 nm | 526 nm | 87.5 cm^-1 M^-1 | 0.86 |  | O=C(O)CSc1c(F)c(F)c2c(c1F)C1(OC2=O)c2cc(F)c(O)cc2Oc2cc(O)c(F)cc21 [Compound 59, 6-carboxymethylthio-2',4,5,7,7'-pentafluorofluorescein] |  |  |
| 503 nm | 522 nm | 77.5 cm^-1 M^-1 | 0.053 |  | Nc1c(F)c(F)c2c(c1F)C1(OC2=O)c2ccc(O)cc2Oc2cc(O)ccc21 [Compound 68, 6-amino-4,5,7-trifluorofluorescein] |  |  |
| 507 nm | 527 nm | 79.9 cm^-1 M^-1 | 0.92 |  | [N-]=[N+]=Nc1c(F)c(F)c2c(c1F)C1(OC2=O)c2ccc(O)cc2Oc2cc(O)ccc21 [Compound 78, 6-azido-4,5,7-trifluorofluorescein] |  |  |

Further lines, the compound ahead of its results:

| Compound | Abs. [1] | Em. [1] | ε × 10^-3 [1] | Quantum Yield [1] | photodecomposition [2] | pKa ([3]; Table 1) | also measured |
| --- | --- | --- | --- | --- | --- | --- | --- |
| O=C1OC2(c3cc(Cl)c(O)cc3Oc3cc(O)c(Cl)cc32)c2ccccc21 [2',7'-dichlorofluorescein, reference compound] |  |  |  |  |  | 5.1 | pKa [3, 6]: ~ 5.1 |
| O=C(O)c1ccc(-c2c3cc(F)c(=O)cc-3oc3cc(O)c(F)cc23)c(S(=O)(=O)O)c1 [9-(4-carboxy-2-sulfo)-6-hydroxy-2,7-difluoro-3H-xanthene-3-one] | 497 nm | 517 nm | 83.8 cm^-1 M^-1 | 0.92 | 7.3% | 4.3 |  |
| O=C1OC2(c3cc(F)c(O)cc3Oc3cc(O)c(F)cc32)c2c(F)c(F)c(F)c(F)c21 [Compound 26, 2',4,5,6,7,7'-hexafluorofluorescein] | 508 nm | 527 nm | 81.2 cm^-1 M^-1 | 0.96 | 4.0% | 4.8 |  |
| CC(=O)Oc1cc2c(cc1Cl)C1(OC(=O)c3c(F)c(F)c(F)c(F)c31)c1cc(Cl)c(OC(C)=O)cc1O2 [Compound 28, 2',7'-dichloro4,5,6,7-tetrafluorofluorescein Diacetate] |  |  |  |  |  |  | Mean Fluorescence intensity of labeled cells ([4]; 100 μM verapamil): 110; Mean Fluorescence intensity of labeled cells ([4]; 1 mM Probenecid): 80.6; Mean Fluorescence intensity of labeled cells ([4]; No drug): 15.6 |
| O=C1OC2(c3cc(F)c(O)cc3Oc3cc(O)c(F)cc32)c2ccccc21 [Compound 29, 2',7'-difluorofluorescein] | 490 nm | 513 nm | 84.7 cm^-1 M^-1 | 0.97 | 8.0% | 4.7 | Fluorescence Intensity [5, 7]: 100%; Fluorescence Intensity [5, 8]: 83.6%; Fluorescence Intensity [5, 9]: 67.3%; Fluorescence Intensity [5, 10]: 51.9%; Fluorescence Intensity [5, 11]: 36.5%; Fluorescence Intensity [5, 12]: 23.8%; Fluorescence Intensity [5, 13]: 13.4%; Fluorescence Intensity [5, 14]: 6.3%; pKa [3, 6]: ~ 4.7 |
| O=C1OC2(c3cc(Cl)c(O)cc3Oc3cc(O)c(Cl)cc32)c2c(F)c(F)c(F)c(F)c21 [Compound 37, 2',7'-dichloro4,5,6,7-tetrafluorofluorescein] | 520 nm | 538 nm | 88.5 cm^-1 M^-1 | 0.80 | 3.0% | 4.2 |  |
| O=c1c(F)c2oc3c(F)c(O)c(F)c(F)c3c(-c3c(F)c(F)c(F)c(F)c3F)c-2c(F)c1F [Compound 50, 1,2,4,5,7,8-hexafluoro-6-hydroxy-9-pentafluorophenylxanthen-3-one] |  |  |  | 0.11 | 4.0% | 2.8 |  |
| CN(C)c1ccc2c(c1)Oc1cc(O)c(F)cc1C21OC(=O)c2ccccc21 (stereo not shown) [Compound 51, 2'-fluoro-N,N-dimethylrhodol] |  |  |  |  |  |  | pKa [3, 15]: 4.2 |
| Nc1cc2c(cc1F)C1(OC(=O)c3ccccc31)c1ccc(O)cc1O2 (stereo not shown) [Compound 52, 7'-fluororhodol] |  |  |  |  |  |  | pKa [3, 15]: 5.2 |
| CN(C)c1cc2c(cc1F)C1(OC(=O)c3ccccc31)c1ccc(O)cc1O2 (stereo not shown) [Compound 53, N,N-dimethyl-7'-fluororhodol] |  |  |  |  |  |  | pKa [3, 15]: 5.3 |
| Nc1ccc2c(c1)Oc1cc(O)c(F)cc1C21OC(=O)c2ccccc21 (stereo not shown) [Compound 54, 2'-fluororhodol] |  |  |  |  |  |  | pKa [3, 15]: 3.8 |
| O=C(O)CSc1c(F)c(F)c2c(c1F)C1(OC2=O)c2ccc(O)cc2Oc2cc(O)ccc21 [Compound 58, 6-carboxymethylthio-4,5,7-trifluorofluorescein] | 507 nm | 526 nm | 63.5 cm^-1 M^-1 | 0.88 | 5.0% | 4.5 |  |
| O=C1OC2(c3ccc(O)cc3Oc3cc(O)ccc32)c2ccccc21 [fluorescein, reference compound] | 490 nm | 514 nm | 82.2 cm^-1 M^-1 | 0.92 | 17% | 6.5 | Fluorescence Intensity [5, 7]: 100%; Fluorescence Intensity [5, 8]: 84.6%; Fluorescence Intensity [5, 9]: 68.8%; Fluorescence Intensity [5, 10]: 54.3%; Fluorescence Intensity [5, 11]: 38.5%; Fluorescence Intensity [5, 12]: 22.9%; Fluorescence Intensity [5, 13]: 11.7%; Fluorescence Intensity [5, 14]: 4.4% |
